Columns and labels:
Set-up in all cases: species or system mouse
[1] = test system: Aβ38; experiment: In vivo efficacy: brain soluble Aβ38 in non-transgenic rodents (MSD electrochemiluminescence multiplex); conditions: Mus musculus, po, 4 h, dose 30 mg/kg oral dosing, brain soluble fraction, animals sacrificed after 4 h, untreated animals (Ctrl) set at 100, read-out: Aβ38 (% vs Ctrl)_Mean
Description: (§1) To determine whether acute administration of an Aβ38 increasing agents would increase Aβ38 levels in vivo, non-transgenic rodents, e.g. mice or rats were used. Animals treated with the Aβ38 increasing agents were examined and compared to those untreated or treated with vehicle and brain levels of soluble Aβ42, Aβ40, Aβ38, and Aβ37 were quantitated by MSD electrochemiluminescence detection technology. Treatment periods varied from hours (h) to days and were adjusted based on the results of the Aβ38 increase once a time course of onset of effect could be established.
(§2) A typical protocol for measuring Aβ38 increase in vivo is shown but it is only one of many variations that could be used to optimize the levels of detectable Aβ. For example, Aβ38 increasing agents were formulated in 20% of Captisol® (a sulfobutyl ether of β-cyclodextrin) in water or 20% hydroxypropyl βcyclodextrin. The Aβ38 increasing agents were administered as a single oral dose or by any acceptable route of administration to overnight fasted animals. After 4 h, the animals were sacrificed and Aβ38 levels were analysed.
(§3) Blood was collected by decapitation and exsanguinations in EDTA-treated collection tubes. Blood was centrifuged at 1900 g for 10 minutes (min) at 4° C. and the plasma recovered and flash frozen for later analysis. The brain was removed from the cranium and hindbrain. The cerebellum was removed and the left and right hemisphere were separated. The left hemisphere was stored at −18° C. for quantitative analysis of test compound levels. The right hemisphere was rinsed with phosphate-buffered saline (PBS) buffer and immediately frozen on dry ice and stored at −80° C. until homogenization for biochemical assays.
(§4) Mouse brains from non-transgenic animals were resuspended in 8 volumes of 0.4% DEA (diethylamine)/50 mM NaCl containing protease inhibitors (Roche-11873580001 or 04693159001) per gram of tissue, e.g. for 0.158 g brain, add 1.264 ml of 0.4% DEA. All samples were homogenized in the FastPrep-24 system (MP Biomedicals) using lysing matrix D (MPBio #6913-100) at 6 m/s for 20 seconds. Homogenates were centrifuged at 20800×g for 5 min and supernatants collected. Supernatants were centrifuged at 221.300×g for 50 min. The resulting high speed supernatants were then transferred to fresh eppendorf tubes. Nine parts of supernatant were neutralized with 1 part 0.5 M Tris-HCl pH 6.8 and used to quantify Aβ.
(§5) To quantify the amount of Aβ42, Aβ40, Aβ38, and Aβ37 in the soluble fraction of the brain homogenates, simultaneous specific detection of Aβ42, Aβ40, Aβ38, and Aβ37 was performed using MSD's electro-chemiluminescence multiplex detection technology. In this assay purified monoclonal antibodies specific for Abeta37 (JRD/Aβ37/3), Abeta38 (J&JPRD/Aβ38/5), Abeta40 (JRF/cAβ40/28), and Abeta42 (JRF/cAβ42/26) were coated on MSD 4-plex plates. Briefly, the standards (a dilution of synthetic Aβ42, Aβ40, Aβ38, and Aβ37) were prepared in 1.5 ml Eppendorf tube in Ultraculture, with final concentrations ranging from 10000 to 0.3 pg/m. The samples and standards were co-incubated with Sulfo-tag labelled JRF/rAβ/2 antibody to the N-terminus of Aβ as detector antibody. 50 μl of conjugate/sample or conjugate/standards mixtures were then added to the antibody-coated plate. The plate was allowed to incubate overnight at 4° C. in order to allow formation of the antibody-amyloid complex. Following this incubation and subsequent wash steps the assay was finished by adding read buffer according to the manufacturer's instructions (MesoScale Discovery, Gaitherburg, Md.).
(§6) The SULFO-TAG emits light upon electrochemical stimulation initiated at the electrode. MSD Sector instrument SI6000 was used for signal read-out.
In this model a Aβ38 increase compared to untreated animals would be advantageous, in particular a Aβ38 increase with at least 10%, more in particular a Aβ38 increase with at least 20%. […]

[2] = test system: Aβ42; experiment: In vivo efficacy: brain soluble Aβ42 in non-transgenic rodents (MSD electrochemiluminescence multiplex); conditions: Mus musculus, po, 4 h, dose 30 mg/kg oral dosing, brain soluble fraction, animals sacrificed after 4 h, untreated animals (Ctrl) set at 100, read-out: Aβ42 (% vs Ctrl)_Mean
Description: as §1, with “Aβ42 lowering agent” for “Aβ38 increasing agents”, “reduce Aβ42” for “increase Aβ38”, “Meso Scale Discovery's (MSD)” for “MSD”, “Aβ42 lowering” for “Aβ38 increase”
as §2, with “measuring Aβ42 lowering” for “measuring Aβ38 increase”, “example, Aβ42 lowering compounds” for “example, Aβ38 increasing agents”, “(a sulfo-butyl” for “(a sulfobutyl”, “The Aβ42 lowering” for “The Aβ38 increasing”, “and Aβ42” for “and Aβ38”
as §3, §4
as §5, with “(Meso Scale” for “(MesoScale”
as §6
In this model a Aβ42 lowering compared to untreated animals would be advantageous, in particular a Aβ42 lowering with at least 10%, more in particular a Aβ42 lowering with at least 20%. […]

[3] = test system: Aβ40; experiment: In vivo efficacy: brain soluble Aβ40 in non-transgenic rodents (MSD electrochemiluminescence multiplex); conditions: Mus musculus, po, 4 h, dose 30 mg/kg oral dosing, brain soluble fraction, animals sacrificed after 4 h, untreated animals (Ctrl) set at 100, read-out: Aβ40 (% vs Ctrl)_Mean
Description: as §1, with “Aβ42 lowering agent” for “Aβ38 increasing agents”, “reduce Aβ42” for “increase Aβ38”, “Meso Scale Discovery's (MSD)” for “MSD”, “Aβ42 lowering” for “Aβ38 increase”
as §2, with “measuring Aβ42 lowering” for “measuring Aβ38 increase”, “example, Aβ42 lowering compounds” for “example, Aβ38 increasing agents”, “(a sulfo-butyl” for “(a sulfobutyl”, “The Aβ42 lowering” for “The Aβ38 increasing”, “and Aβ42” for “and Aβ38”
as §3, §4
as §5, with “(Meso Scale” for “(MesoScale”
as §6
The results are shown in Table 5 (dose 30 mg/kg oral dosing) (value for untreated animals as control (Ctrl) was set at 100): […]

Molecule Cc1cn(-c2ccc3n(c2=O)CC(C)N(Cc2c[nH]c4cc(C(F)(F)F)ccc24)C3=O)cn1 (stereo not drawn) [compound 203] has a response vs control in vivo at 30 mg/kg [1] of 133%, a response vs control in vivo at 30 mg/kg [2] of 67% and a response vs control in vivo at 30 mg/kg [3] of 137%.

From patent US20150141411A1, “SUBSTITUTED 3,4-DIHYDRO-2H-PYRIDO[1,2-A]PYRAZINE-1,6-DIONE DERIVATIVES USEFUL FOR THE TREATMENT OF (INTER ALIA) ALZHEIMER'S DISEASE” (Janssen Pharmaceuticals, Inc., priority 2012, published 2015)
